Source: patent US11241424B2, “Pharmaceutical formulations for sustained release of sebacoyl dinalbuphine ester” (LUMOSA THERAPEUTICS CO., LTD., priority 2015, dated 2022)
Where “and” joins values, the source holds several entries; their conditions need not be identical. Identical values can stand only once.

Tests used:
[1] = system: postoperative pain following hemorrhoidectomy; assay: Phase 2/3 clinical study of F8 formulation; assay type: in vivo, human
Experimental: The subjects were divided into two groups, of which Group 1 (n=103) was treated with a single dose of intramuscular SDE 150 mg (2 mL), and Group 2 (n=106) was treated with a single dose of intramuscular placebo (2 mL). All subjects were given a single dose of SDE or placebo via intramuscular injection 24±12 hours before hemorrhoid surgery. The subjects were allowed to take rescue medication and monitored for 7 days after dosing. Statistical analyses were performed on the data to compare the two groups.
The primary efficacy endpoint was pain assessment calculated as the area under the curve of VAS pain intensity scores through 48 hours after surgery. The secondary efficacy endpoints included pain assessment measured with VAS; time from the end of operation to the first rescue medication dosing; the consumption of oral ketorolac. Pain intensity was assessed right before the first use of PCA ketorolac, and at 1±0.1, 2±0.1, 3±0.1, 4±0.25, 8±0.5, 12±0.5, 16±0.5, 20±0.5, 24±1, 28±1, 32±2, 36±2, 40±2, 44±2, 48±2 hours after the surgery, and was assessed during Days 3-7 in the morning and evening, as well as during special events such as bowel movements.
For the calculation of AUC, data were imputed with the use of the windowed worst observation carried forward plus last observation carried forward method. For subjects who used rescue medication for pain relief, their VAS scores recorded within the window of ketorolac medication (6 hours, which is one half-life of ketorolac) were replaced by the “worst” observation (i.e., the highest score before taking ketorolac), hereafter called “adjusted VAS scores.”
The AUC0-24 and AUC0-48 of the mean adjusted VAS scores of SDE and placebo groups were calculated by using the trapezoidal method and summarized in Table 10.

[2] = Solubility test of SDE in solvents and solvent systems (UPLC); assay type: physicochemical
Experimental: As used herein, the term “solubility” means the maximum amount of a solute (e.g., an active ingredient or a prodrug thereof) that can be dissolved in a given amount of a solvent at a particular temperature. Unless otherwise specified, the solubilities presented herein are at room temperature (e.g., 25-28° C.). The term “saturated concentration” refers to the concentration at which no more of a solute will dissolve in a solvent and additional amounts of solute will appear as a separate phase (e.g., as a precipitate).
Each of the solvent systems was prepared by mixing each component with the exact volume (pi) corresponding to the w/w % listed in Table 15. About 500 μl of each of the solvent systems was prepared and was vortexed for 3 minutes or more to fully mix each component. An appropriate amount of SDE was added into 250 μl of each of the solvent systems and the resulting mixtures were sonicated for 10 minutes. If the previously added SDE was completely dissolved, an additional 4-8 mg of SDE was added into the mixture and which was then sonicated for another 10 minutes. The step of adding 4-8 mg of SDE was repeated until the mixture was saturated to show undissolved SDE precipitates. All of the mixtures were sonicated for at least 30 minutes, and then centrifuged to collect the supernatants. The supernatants were treated with acetonitrile and then subjected to UPLC analysis.
Five groups of solvent systems containing 40% by weight of sesame oil were respectively prepared according to the method of Example 6 by using the compositions as listed in Table 17; and among them, five different alcohols (i.e., ethanol, 1-propanol, 2-propanol, 1-butanol, and tert-butanol) were used in the five groups. SDE was dissolved in each of the solvent systems till saturation by following the method of Example 6. The SDE concentrations in the supernatants collected from each of the samples (i.e. the saturated SDE concentration, or SDE solubility) were respectively determined by UPLC using the method of Example 6.

[3] = Bioavailability study of F8 formulation and Bain (whole blood nalbuphine); assay type: in vivo, human; conditions: mean, SDE 150 mg single IM as F8 formulation
Experimental: A total of twelve subjects completed the crossover study. […] There was a minimum 5-day washout period between period I and period II. In period I, the blood samples were drawn prior to the dosing, and 0.083, 0.25, 0.5, 1, 1.5, 2, 3, 4, 6, 8, 12, and 24 hours after dosing.

[4] = Phase I clinical trial of F8 formulation (safety, tolerability, pharmacokinetics); conditions: for AUC0-inf / AUC0-t / Cmax / T1/2 / Tmax: plasma nalbuphine, mean
Experimental: It was designed to evaluate safety and local tolerability and assess the pharmacokinetics of SDE following single dose intramuscular injection. The study enrolled a total of 28 healthy male subjects. All subjects were randomized to 5 cohorts. Cohort 1 (N=4) was treated with single dose Nubain® 17 mg (0.85 mL) via intramuscular injection. Cohorts 2-5 (N=6) were either treated with placebo (N=2) or treated with single dose SDE (N=4) at 75 mg (1 mL), 100 mg (1.33 mL), 125 mg (1.67 mL), and 150 mg (2 mL), respectively.
Heparinized blood samples were obtained before and at various time points following single dose administration of study medication. […] The subsequent analysis of the data involved non-compartmental pharmacokinetics analysis, i.e., Cmax, Tmax, AUC0-t, AUC0-inf, and T1/2.

[5] = Plasma nalbuphine after subcutaneous nalbuphine in dogs; assay type: in vivo
[6] = after i.v. dosing in dogs; cited from earlier work
[7] = 48 hours post-operation, SDE 150 mg IM (F8)
[8] = mITT, SDE 150 mg IM (F8) 24±12 hours before hemorrhoid surgery
[9] = SDE 75 mg single IM as F8 formulation
[10] = SDE 100 mg single IM as F8 formulation
[11] = SDE 125 mg single IM as F8 formulation
[12] = SDE 150 mg single IM as F8 formulation
[13] = dog, plasma, subcutaneous, 0.5 mg/kg

Compound: O=C(CCCCCCCCC(=O)Oc1ccc2c3c1O[C@H]1[C@@H](O)CC[C@@]4(O)[C@@H](C2)N(CC2CCC2)CC[C@]314)Oc1ccc2c3c1O[C@H]1[C@@H](O)CC[C@@]4(O)[C@@H](C2)N(CC2CCC2)CC[C@]314 [SDE, sebacoyl dinalbuphine ester]
- AUC0-final of adjusted VAS scores, Mean ± SD ([1]; 0 hr to 7 days after hemorrhoid operation, mITT, SDE 150 mg IM (F8)): 630.79±350.90
- consumption of oral ketorolac, Mean [1, 7]: 51.36 mg
- consumption of oral ketorolac, Median [1, 7]: 40.00 mg
- time for the first use of post-operational analgesic, Mean (SD) ([1]; mITT, SDE 150 mg IM (F8)): 12.57 hour and 12.57 (1.68) hour
- AUC0-24 of adjusted VAS pain intensity scores, Mean ± SD [1, 8]: 109.42 ± 55.04
- AUC0-48 of adjusted VAS pain intensity scores, Mean ± SD [1, 8]: 209.93±111.26
- adjusted VAS score compared with placebo ([1]; throughout the 7 days after the hemorrhoid operation): lower than the placebo group
- effect of C2-C4 alcohol on the solubility of SDE (FIG. 11) ([2]; 2.5-30% by weight of the alcohol in solvent system with 40% sesame oil): significantly increased
- solubility of SDE in the formulations ([2]; 10% by weight of tert-Butanol replacing benzyl benzoate): about 210 mg/mL
- increase of the solubility of SDE in the solvent systems ([2]; 10% of alkyl alcohol added): at least 30%
- Solubility of SDE in the solvent ([2]; castor oil): about 13 mg/mL
- Solubility of SDE in the solvent ([2]; cottonseed oil): about 6 mg/mL
- solubility of SDE in ethanol, 1-propanol, or t-butanol ([2]; each alcohol alone): 10000 to 30000 µg/mL
- solubility of SDE when added to the mixture of benzyl benzoate and sesame oil ([2]; weight ratio of benzyl benzoate to sesame oil about 1.1): about 70 mg/mL
- solubility of SDE when added to the mixture of benzyl benzoate and sesame oil ([2]; weight ratio of benzyl benzoate to sesame oil about 1.5): about 150 mg/mL
- solubility of SDE when added to the mixture of benzyl benzoate and sesame oil ([2]; weight ratio of benzyl benzoate to sesame oil about 2.3): about 200 mg/mL
- solubility of SDE when added to the mixture of benzyl benzoate and sesame oil ([2]; weight ratio of benzyl benzoate to sesame oil about 9): greater than 300 mg/mL
- solubility of SDE in the formulations ([2]; without alkyl alcohol): about 160 mg/mL
- AUC0-inf [3]: 1832.0 ng·h/mL
- AUC0-t [3]: 1687.4 ng·h/mL
- Cmax [3]: 15.40 ng/mL
- MRT [3]: 149.38 h
- T1/2 [3]: 83.16 h
- Tmax [3]: 64.00 h
- duration of action ([4]; cohort receiving 125 mg SDE, from plasma nalbuphine above 3 ng/mL): about 6.5 days
- duration of action ([4]; cohort receiving 150 mg SDE, from plasma nalbuphine above 3 or 1 ng/mL): 6 to 12 days
- tolerability ([4]; escalating single IM doses of SDE up to 150 mg): well tolerated
- AUC0-inf [4, 9]: 692.27 ng·h/mL
- AUC0-t [4, 9]: 647.84 ng·h/mL
- Cmax [4, 9]: 5.45 ng/mL
- T1/2 [4, 9]: 55.75 h
- Tmax [4, 9]: 66 h
- AUC0-inf [4, 10]: 936.17 ng·h/mL
- AUC0-t [4, 10]: 811.34 ng·h/mL
- Cmax [4, 10]: 5.65 ng/mL
- T1/2 [4, 10]: 85.45 h
- Tmax [4, 10]: 66 h
- AUC0-inf [4, 11]: 1219.71 ng·h/mL
- AUC0-t [4, 11]: 1047.45 ng·h/mL
- Cmax [4, 11]: 7.31 ng/mL
- T1/2 [4, 11]: 89.83 h
- Tmax [4, 11]: 45 h
- AUC0-inf [4, 12]: 1353.16 ng·h/mL
- AUC0-t [4, 12]: 1214.98 ng·h/mL
- Cmax [4, 12]: 9.81 ng/mL
- T1/2 [4, 12]: 73.4 h
- Tmax [4, 12]: 60 h
- difference between SDE and placebo groups in number of AEs, subjects with AEs, severity and relatedness ([4]; single IM dose 75-150 mg): No significant difference
- severity of adverse events (AEs) ([4]; single IM dose, healthy male subjects): mild

Compound: Oc1ccc2c3c1O[C@H]1[C@@H](O)CC[C@@]4(O)[C@@H](C2)N(CC2CCC2)CC[C@]314 [nalbuphine]
- concentration at 3 h [5, 13]: 9.9 ng/mL
- concentration at 4 h [5, 13]: 5.2 ng/mL
- effective plasma concentration of nalbuphine for analgesia in dog ([5]; inferred from 4 h plasma level and reported 4 h analgesia): about 5 ng/mL
- elimination half-life of nalbuphine [6]: about 1.2 hour
